According to patent US11771663B2, “Epinephrine spray formulations” (HIKMA PHARMACEUTICALS USA INC., priority 2015, dated 2023):

Key:
[1] = Mini-pig pharmacokinetics, single-dose crossover, plasma epinephrine by LC-MS/MS; type: in vivo, Yucatan mini-pigs; conditions: male, Yucatan, 0.3 mg per animal, minipig, single-dose intramuscular (IM), read-out: geometric mean plasma concentration of epinephrine
Experimental: Protocol design was a single-dose crossover study. Five healthy male Yucatan mini-pigs weighing approximately eighty to ninety-five kilograms each were administered epinephrine formulations. The minipigs were fasted overnight till four hours' post administration. Each dosing was followed by a washout period of at least one-week. Blood samples were taken prior to administration and 2, 5, 10, 15, 20, 30, 45 min, 1, 1.5, 2, 4, and 24 hours' post dose. Minipig plasma samples were measured for epinephrine concentrations via liquid chromatography-tandem mass spectrometry.

[2] = Rabbit pharmacokinetics, single-dose non-crossover, plasma epinephrine by LC-MS/MS; type: in vivo, New Zealand white rabbits; conditions: male, New Zealand white, intramuscular, 0.03 mg per animal, single-dose IM
Experimental: Protocol design was a single-dose non-crossover study. Pharmacokinetics of a number of epinephrine formulations were evaluated in healthy male New Zealand white rabbits weighing approximately two to three kilograms. For dosing of each formulation, five or six rabbits were used. The rabbits were fasted overnight till four hours' post administration. Blood samples were taken prior to administration and 5, 10, 15, 20, 30, 40 min, 1, 1.5, 2, 4, and 5 hours' post dose. Rabbit plasma samples were measured for epinephrine concentrations via liquid chromatography-tandem mass spectrometry. Formulation #R9 existed as a spray-dried powder of epinephrine bitartrate salt. For the evaluation of #R9, approximately 21.83 mg of powder was dosed to each animal, as an equivalent dose of 12 mg epinephrine.

SMILES: CNC[C@H](O)c1ccc(O)c(O)c1 [epinephrine, Epinephrine]
- concentration at 5 min [1]: 0.046 ng/mL
- concentration at 5 min [2]: 0.988 ng/mL
